Test results: ChEMBL document CHEMBL5120746, “Novel 5-fluorouracil sensitizers for colorectal cancer therapy: Design and synthesis of S1P receptor 2 (S1PR2) antagonists” (Eur J Med Chem, 2022)
Active and inactive are the calls of the source. The calls are words filed in the database; no cut-off is given here.

Key:
HCT-116 [1] = assay: Reversal of 5-FU resistance against 5-FU resistant DPD expressed human HCT-116 cells assessed as reduction in cell viability incubated for 48 hrs in presence of 5-FU by MTT assay; type: functional, cell-based; conditions: HCT-116, 48 h
SW620/5-FU [2] = assay: Reversal of 5-FU resistance against human SW620/5-FU cells assessed as reduction in cell viability incubated for 48 hrs in presence of 5-FU by MTT assay; type: functional, cell-based
NCM460 [3] = assay: Cytotoxicity against human NCM460 cells assessed as reduction in cell viability at 5 to 80 uM; type: toxicity, cell-based; conditions: ncm460, 80 µM, dose 5-80 µM
NCM460 [4] = assay: Cytotoxicity against human NCM460 cells assessed as reduction in cell viability at 5 to 80 uM in presence of 5-fluorouracil; type: toxicity, cell-based; conditions: ncm460, 80 µM, dose 5-80 µM
SW620/5-FU [5] = assay: Downregulation of DPD expression level in human SW620/5-FU cells measured after 12 hrs by Western blot analysis; type: functional, cell-based; conditions: dose 5-40 µM, DDE = dose-dependent effect
HCT-116 [6] = assay: Downregulation of DPD expression in DPD expressed human HCT-116 cells measured after 12 hrs by Western blot analysis; type: functional, cell-based; conditions: dose 5-40 µM, DDE = dose-dependent effect
[7] = target: ATP-dependent translocase ABCB1 (Homo sapiens, UniProt P08183); assay: Reversal of Pgp-mediated paclitaxel resistance in human LCC6MDR cells assessed as P-gp modulating activity by measuring relative fold at 1 uM; type: cell-based
[8] = Downregulation of S1PR2 mRNA expression level in human SW620/5-FU cells at 20 uM measured after 24 hrs by qRT-PCR analysis; type: functional
[9] = Downregulation of S1PR2 mRNA expression level in DPD expressed human HCT-116 cells at 20 uM measured after 24 hrs by qRT-PCR analysis; type: functional
[10] = Initial drug concentration in Sprague-Dawley rat blood at 1 mg/kg, iv measured up to 24 hrs by HPLC-MS/MS analysis; type: ADME, organism-based
[11] = AUC (0 to t) in Sprague-Dawley rat blood at 1 mg/kg, iv measured up to 24 hrs by HPLC-MS/MS analysis; type: ADME, organism-based; parameters: dose 1 mg/kg, time < 24 hrs, route iv
[12] = Apparent volume of distribution in Sprague-Dawley rat blood at 1 mg/kg, iv measured up to 24 hrs by HPLC-MS/MS analysis; type: ADME, organism-based; conditions: read-out: Vd(app)
[13] = Clearance in Sprague-Dawley rat blood at 1 mg/kg, iv measured up to 24 hrs by HPLC-MS/MS analysis; type: ADME, organism-based
[14] = MRT (0 to t) in Sprague-Dawley rat blood at 1 mg/kg, iv measured up to 24 hrs by HPLC-MS/MS analysis; type: ADME, organism-based
[15] = Initial drug concentration in Sprague-Dawley rat plasma at 1 mg/kg, iv measured up to 24 hrs by HPLC-MS/MS analysis; type: ADME, organism-based
[16] = Half life in Sprague-Dawley rat plasma at 1 mg/kg, iv measured up to 24 hrs by HPLC-MS/MS analysis; type: ADME, organism-based; conditions: in vivo
[17] = AUC (0 to infinity) in Sprague-Dawley rat plasma at 1 mg/kg, iv measured up to 24 hrs by HPLC-MS/MS analysis; type: ADME, organism-based; parameters: dose 1 mg/kg, time < 24 hrs, route iv
[18] = Apparent volume of distribution in Sprague-Dawley rat plasma at 1 mg/kg, iv measured up to 24 hrs by HPLC-MS/MS analysis; type: ADME, organism-based; conditions: in vivo
[19] = Clearance in Sprague-Dawley rat plasma at 1 mg/kg, iv measured up to 24 hrs by HPLC-MS/MS analysis; type: ADME, organism-based; conditions: in vivo
[20] = MRT (0 to t) in Sprague-Dawley rat plasma at 1 mg/kg, iv measured up to 24 hrs by HPLC-MS/MS analysis; type: ADME, organism-based
[21] = MRT (0 to infinity) in Sprague-Dawley rat plasma at 1 mg/kg, iv measured up to 24 hrs by HPLC-MS/MS analysis; type: ADME, organism-based
SW620/5-FU [22] = assay: Antitumor activity against human SW620/5-FU cells xenografted in SPF nude mouse assessed as tumor growth inhibition at 15 mg/kg, iv QD for 21 days and measured every 4 days; type: functional; conditions: 504 h, time 21 day, read-out: TGI
SW620/5-FU [23] = assay: Antitumor activity against human SW620/5-FU cells xenografted in SPF nude mouse assessed as tumor growth inhibition at 7.5 mg/kg, iv QD for 21 days and measured every 4 days in presence of 5-fluorouracil; type: functional; conditions: 504 h, time 21 day, read-out: TGI
SW620/5-FU [24] = assay: Antitumor activity against human SW620/5-FU cells xenografted in SPF nude mouse assessed as tumor growth inhibition at 15 mg/kg, iv QD for 21 days and measured every 4 days in presence of 5-fluorouracil; type: functional; conditions: 504 h, time 21 day, read-out: TGI
SW620/5-FU [25] = assay: Antitumor activity against human SW620/5-FU cells xenografted in SPF nude mouse assessed as tumor growth inhibition at 30 mg/kg, iv QD for 21 days and measured every 4 days in presence of 5-fluorouracil; type: functional; conditions: 504 h, time 21 day, read-out: TGI
SW620/5-FU [26] = assay: Antitumor activity against human SW620/5-FU cells xenografted in SPF nude mouse assessed as reduction in tumor weight at 15 mg/kg, iv QD for 21 days; type: functional; parameters: scale not given: the % may be the effect or the level left; conditions: time 21 day
SW620/5-FU [27] = assay: Antitumor activity against human SW620/5-FU cells xenografted in SPF nude mouse assessed as reduction in tumor weight at 7.5 mg/kg, iv QD for 21 days; type: functional; parameters: scale not given: the % may be the effect or the level left; conditions: time 21 day
SW620/5-FU [28] = assay: Antitumor activity against human SW620/5-FU cells xenografted in SPF nude mouse assessed as reduction in tumor weight at 7.5 mg/kg, iv QD for 21 days in presence of 5-fluorouracil; type: functional; parameters: scale not given: the % may be the effect or the level left; conditions: time 21 day
SW620/5-FU [29] = assay: Antitumor activity against human SW620/5-FU cells xenografted in SPF nude mouse assessed as reduction in tumor weight at 15 mg/kg, iv QD for 21 days in presence of 5-fluorouracil; type: functional; parameters: scale not given: the % may be the effect or the level left; conditions: time 21 day
SW620/5-FU [30] = assay: Antitumor activity against human SW620/5-FU cells xenografted in SPF nude mouse assessed as reduction in tumor weight at 30 mg/kg, iv QD for 21 days in presence of 5-fluorouracil; type: functional; parameters: scale not given: the % may be the effect or the level left; conditions: time 21 day
Mus musculus [31] = assay: Downregulation of DPD expression in tumor of SPF nude mouse xenografted with human SW620/5-FU cells administered intravenously QD for 21 days by Western blot analysis; type: functional; conditions: dose 7.5-15 mg/kg, route iv, time 21.0 day, DDE = dose-dependent effect
[32] = Downregulation of DPD expression in tumor of SPF nude mouse xenografted with human SW620/5-FU cells at 30 mg/kg, iv QD for 21 days in presence of 5-fluorouracil by Western blot analysis; type: functional; conditions: time 21 day
Mus musculus [33] = assay: Downregulation of DPD expression in liver of SPF nude mouse xenografted with human SW620/5-FU cells at 15 to 30 mg/kg, iv QD for 21 days in presence of 5-fluorouracil by Western blot analysis; type: functional, organism-based; conditions: dose 15-30 mg/kg, time 21.0 day
Mus musculus [34] = assay: Downregulation of DPD expression in tumor of SPF nude mouse xenografted with human SW620/5-FU cells at 7.5 to 15 mg/kg, iv QD for 21 days by immunohistochemical analysis; type: functional, organism-based; conditions: dose 7.5-15 mg/kg, time 21.0 day
Mus musculus [35] = assay: Downregulation of S1PR2 expression in tumor SPF nude mouse xenografted with human SW620/5-FU cells at 7.5 to 15 mg/kg, iv QD for 21 days by immunohistochemical analysis; type: functional, organism-based; conditions: dose 7.5-15 mg/kg, time 21.0 day

ATP-dependent translocase ABCB1, sequence (P08183 whole entry): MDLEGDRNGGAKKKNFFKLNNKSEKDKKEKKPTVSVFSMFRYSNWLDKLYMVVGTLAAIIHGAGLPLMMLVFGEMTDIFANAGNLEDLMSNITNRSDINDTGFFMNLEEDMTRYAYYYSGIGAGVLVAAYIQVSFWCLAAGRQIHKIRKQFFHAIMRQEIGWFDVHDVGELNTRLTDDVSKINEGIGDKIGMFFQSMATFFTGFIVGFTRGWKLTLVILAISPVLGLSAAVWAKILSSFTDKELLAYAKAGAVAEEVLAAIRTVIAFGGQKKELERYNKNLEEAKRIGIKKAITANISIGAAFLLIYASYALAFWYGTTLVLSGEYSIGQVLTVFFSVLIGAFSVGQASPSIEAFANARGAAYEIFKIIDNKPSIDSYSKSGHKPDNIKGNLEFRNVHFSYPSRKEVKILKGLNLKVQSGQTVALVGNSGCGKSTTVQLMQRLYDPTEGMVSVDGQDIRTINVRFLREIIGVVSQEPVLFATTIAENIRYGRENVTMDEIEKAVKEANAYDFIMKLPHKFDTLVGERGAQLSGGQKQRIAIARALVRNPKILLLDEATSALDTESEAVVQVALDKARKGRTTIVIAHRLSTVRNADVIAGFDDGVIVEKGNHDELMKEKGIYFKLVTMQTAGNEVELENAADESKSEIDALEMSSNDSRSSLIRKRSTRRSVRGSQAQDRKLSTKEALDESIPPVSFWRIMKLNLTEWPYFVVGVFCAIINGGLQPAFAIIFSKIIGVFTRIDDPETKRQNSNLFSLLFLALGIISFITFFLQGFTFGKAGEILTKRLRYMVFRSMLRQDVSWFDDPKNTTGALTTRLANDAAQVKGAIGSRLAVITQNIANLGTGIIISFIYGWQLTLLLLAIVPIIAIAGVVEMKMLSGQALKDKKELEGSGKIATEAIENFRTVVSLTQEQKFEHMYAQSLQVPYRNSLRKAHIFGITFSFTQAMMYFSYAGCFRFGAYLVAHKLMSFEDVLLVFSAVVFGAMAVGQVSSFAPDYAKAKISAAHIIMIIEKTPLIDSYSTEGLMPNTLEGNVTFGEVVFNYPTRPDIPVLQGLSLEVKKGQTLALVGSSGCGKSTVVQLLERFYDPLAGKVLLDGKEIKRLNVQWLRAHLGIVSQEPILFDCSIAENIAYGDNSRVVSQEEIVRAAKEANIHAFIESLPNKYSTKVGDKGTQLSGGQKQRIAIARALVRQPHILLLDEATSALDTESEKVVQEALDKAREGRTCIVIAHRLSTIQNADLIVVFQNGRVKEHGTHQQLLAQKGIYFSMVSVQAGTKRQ

## Cn1ncc2c(-c3ccc(F)cc3)cc(NNC(=O)Nc3cc(Cl)nc(Cl)c3)nc21
HCT-116 [1]
  EC50: 8.21 µM
SW620/5-FU [2]
  EC50: 9.15 µM
NCM460 [3]
  Activity: Toxic
NCM460 [4]
  Activity: Toxic
SW620/5-FU [5]
  Activity: Dde
HCT-116 [6]
  Activity: Dde
[7]
  fold change (FC): 1.4
[8]
  Activity: 25%
[9]
  Activity: 25%
[10]
  C0 at 24 h: 4970 ng/mL
[11]
  AUC(0-t) at 24 h: 10300 ng·h/mL
[12]
  Vd: 1.8 L/kg
[13]
  clearance: 1.5 mL/min/kg
[14]
  MRT last at 24 h: 7.9 h
[15]
  C0 at 24 h: 4040 ng/mL
[16]
  t1/2: 4.4 h
[17]
  AUC(0-inf): 11700 ng·h/mL
[18]
  Vd(app): 2 L/kg
[19]
  CL: 1.5 mL/min/kg
[20]
  MRT last at 24 h: 7.6 h
[21]
  MRT inf: 8.3 h
SW620/5-FU [22]
  inhibition in vivo at 15 mg/kg: 28.5%
SW620/5-FU [23]
  inhibition in vivo at 7.5 mg/kg: 43.2%
SW620/5-FU [24]
  inhibition in vivo at 15 mg/kg: 52%
SW620/5-FU [25]
  inhibition in vivo at 30 mg/kg: 62.1%
SW620/5-FU [26]
  Activity: 12.34%
SW620/5-FU [27]
  Activity: 8.68%
SW620/5-FU [28]
  Activity: 47.79%
SW620/5-FU [29]
  Activity: 51.72%
SW620/5-FU [30]
  Activity: 60.81%
Mus musculus [31]
  Activity: Dde
[32]
  Activity: 0.05
Mus musculus [33]
  Activity: Active
Mus musculus [34]
  Activity: Active
Mus musculus [35]
  Activity: Active
